Laboratory results reported in patent US20070281992A1, “COMBINATION OF GYRASE B INHIBITORS AND PROTEIN SYNTHESIS INHIBITORS AND USES THEREOF” (priority 2006, published 2007).
Where two headings read alike, the source gives them in different places.

Experiments:
Assay type in all cases: cell-based
[1] = test system: Linezolid-Resistant Staphylococcus aureus Isolates; assay: MIC assay (NCCLS broth dilution), LRSA isolates; details: Staphylococcus aureus; for MIC: read-out: Minimal Inhibitory Concentration
Protocol: (§1) Antibiotics: novobiocin, tetracycline, minocycline, oxacillin, and vancomycin were all purchased from Sigma-Aldrich. Linezolid was obtained from Pfizer, Inc. Novobiocin/tetracycline and novobiocin/minocycline were tested in a 2.5:1 ratio to mimic the serum levels. (Vavra, J. J., 1967, Development of resistance to novobiocin, tetracycline, and novobiocin-tetracycline combinations in Staphylococcus aureus populations, J. Bacteriol 93(3):801). Compounds were tested across a concentration range consisting of 11 two-fold serial dilutions of test agent.
(§2) Stock solutions were prepared in sterile deionized water; novobiocin stock concentration was 1600 μg/mL and all other drugs stock solutions were prepared at 640 μg/mL. The stock solutions were allowed to sit at room temperature for one hour to auto-sterilize prior to use in the test. All compounds were in solution in water. The control agent was vancomycin hydrochloride, Sigma Chemical Lot # 015K0825.
(§3) The test organisms for the assay were 52 MSSA, 52 MRSA, 8 VISA, 7 VISE, and 3 LRSA isolates. Quality control strains included Staphylococcus aureus 0100 (ATCC 29213) and Enterococcus faecalis (ATCC 29212).
(§4) The MIC assay was performed according to published NCCLS guidelines. (National Committee for Clinical Laboratory Standards, Methods for Dilution Antimicrobial Susceptibility Tests for Bacteria that Grow Aerobically; Approved Standard-Sixth Edition, NCCLS Document M7-A6 [ISBN 1-56238-486-4], NCCLS, 940 West Valley Road, Suite 1400, Wayne, Pa. 19087-1898 USA, 2003). The test medium was Mueller Hinton II Broth for all organisms.

[2] = test system: Methicillin-Resistant Staphylococcus aureus Isolates; assay: MIC assay (NCCLS broth dilution), MRSA clinical isolates; details: for MIC: read-out: Minimal Inhibitory Concentration
Protocol: as §1, §2, §3, §4

[3] = test system: Vancomycin-intermediate Staphylococcus aureus Isolates; assay: MIC assay (NCCLS broth dilution), VISA isolates; details: for MIC: read-out: Minimal Inhibitory Concentration
Protocol: as §1, §2, §3, §4

[4] = test system: Methicillin-Susceptible Staphylococcus aureus Isolates; assay: MIC assay (NCCLS broth dilution), MSSA clinical isolates; details: for MIC: read-out: Minimal Inhibitory Concentration
Protocol: as §1, §2, §3, §4

[5] = test system: Enterococcus faecalis (ATCC 29212); assay: MIC assay, quality control strain E. faecalis ATCC 29212; details: ATCC29212, E. faecalis ATCC 29212, repeat runs 22FEB06-09MAR06, combinations at 2.5:1, read-out: Minimal Inhibitory Concentration, quality control
Protocol: as §1, §2, §3, §4

[6] = Staphylococcus aureus, 52 MRSA isolates, combinations at 2.5:1, given as NB/partner
[7] = Staphylococcus aureus, 52 MSSA isolates, combinations at 2.5:1, given as NB/partner

MIC ([1]; LRSA isolate 1651, 24FEB06): 16 µg/mL
MIC ([1]; LRSA isolate 1652, 24FEB06): 32 µg/mL
MIC ([1]; LRSA isolate 1725, 24FEB06): 32 µg/mL
MIC50 ([1]; 3 LRSA isolates, combinations at 2.5:1): 32 µg/mL
MIC Range ([2]; 52 MRSA isolates, combinations at 2.5:1, given as NB/partner): 2 to 4 µg/mL
MIC ([2]; Staphylococcus aureus, MRSA isolate 757, 24FEB06): 4 µg/mL
MIC ([2]; Staphylococcus aureus, MRSA isolate 758, 03MAR06): 4 µg/mL
MIC ([2]; Staphylococcus aureus, MRSA isolate 758, 24FEB06): 4 µg/mL
MIC ([2]; Staphylococcus aureus, MRSA isolate 760, 03MAR06): 2 µg/mL
MIC ([2]; Staphylococcus aureus, MRSA isolate 760, 24FEB06): 4 µg/mL
MIC ([2]; Staphylococcus aureus, MRSA isolate 763, 22FEB06): 4 µg/mL
MIC ([2]; Staphylococcus aureus, MRSA isolate 765, 22FEB06): 4 µg/mL
MIC ([2]; Staphylococcus aureus, MRSA isolate 766, 22FEB06): 4 µg/mL
MIC ([2]; Staphylococcus aureus, MRSA isolate 767, 22FEB06): 2 µg/mL
MIC ([2]; Staphylococcus aureus, MRSA isolate 768, 22FEB06): 2 µg/mL
MIC ([2]; Staphylococcus aureus, MRSA isolate 769, 22FEB06): 2 µg/mL
MIC ([2]; Staphylococcus aureus, MRSA isolate 770, 22FEB06): 2 µg/mL
MIC ([2]; Staphylococcus aureus, MRSA isolate 771, 22FEB06): 2 µg/mL
MIC ([2]; Staphylococcus aureus, MRSA isolate 772, 22FEB06): 2 µg/mL
MIC ([2]; Staphylococcus aureus, MRSA isolate 773, 24FEB06): 2 µg/mL
MIC ([2]; Staphylococcus aureus, MRSA isolate 774, 24FEB06): 2 µg/mL
MIC ([2]; Staphylococcus aureus, MRSA isolate 775, 24FEB06): 4 µg/mL
MIC ([2]; Staphylococcus aureus, MRSA isolate 776, 24FEB06): 2 µg/mL
MIC ([2]; Staphylococcus aureus, MRSA isolate 777, 24FEB06): 2 µg/mL
MIC ([2]; Staphylococcus aureus, MRSA isolate 778, 24FEB06): 2 µg/mL
MIC ([2]; Staphylococcus aureus, MRSA isolate 886, 24FEB06): 2 µg/mL
MIC ([2]; Staphylococcus aureus, MRSA isolate 887, 24FEB06): 4 µg/mL
MIC ([2]; Staphylococcus aureus, MRSA isolate 888, 24FEB06): 4 µg/mL
MIC ([2]; Staphylococcus aureus, MRSA isolate 889, 24FEB06): 4 µg/mL
MIC ([2]; Staphylococcus aureus, MRSA isolate 1004, 24FEB06): 4 µg/mL
MIC ([2]; Staphylococcus aureus, MRSA isolate 1010, 22FEB06): 2 µg/mL
MIC ([2]; Staphylococcus aureus, MRSA isolate 1012, 22FEB06): 2 µg/mL
MIC ([2]; Staphylococcus aureus, MRSA isolate 1013, 22FEB06): 2 µg/mL
MIC ([2]; Staphylococcus aureus, MRSA isolate 1014, 22FEB06): 2 µg/mL
MIC ([2]; Staphylococcus aureus, MRSA isolate 1015, 22FEB06): 2 µg/mL
MIC ([2]; Staphylococcus aureus, MRSA isolate 1016, 22FEB06): 2 µg/mL
MIC ([2]; Staphylococcus aureus, MRSA isolate 1017, 22FEB06): 2 µg/mL
MIC ([2]; Staphylococcus aureus, MRSA isolate 1021, 22FEB06): 2 µg/mL
MIC ([2]; Staphylococcus aureus, MRSA isolate 1022, 22FEB06): 2 µg/mL
MIC ([2]; Staphylococcus aureus, MRSA isolate 1023, 22FEB06): 2 µg/mL
MIC ([2]; Staphylococcus aureus, MRSA isolate 1024, 22FEB06): 2 µg/mL
MIC ([2]; Staphylococcus aureus, MRSA isolate 1025, 22FEB06): 2 µg/mL
MIC ([2]; Staphylococcus aureus, MRSA isolate 1135, 22FEB06): 2 µg/mL
MIC ([2]; Staphylococcus aureus, MRSA isolate 1136, 22FEB06): 4 µg/mL
MIC ([2]; Staphylococcus aureus, MRSA isolate 1137, 22FEB06): 2 µg/mL
MIC ([2]; Staphylococcus aureus, MRSA isolate 1138, 22FEB06): 4 µg/mL
MIC ([2]; Staphylococcus aureus, MRSA isolate 1222, 03MAR06): 2 µg/mL
MIC ([2]; Staphylococcus aureus, MRSA isolate 1222, 24FEB06): 2 µg/mL
MIC ([2]; Staphylococcus aureus, MRSA isolate 1653, 03MAR06): 2 µg/mL
MIC ([2]; Staphylococcus aureus, MRSA isolate 1658, 03MAR06): 2 µg/mL
MIC ([2]; Staphylococcus aureus, MRSA isolate 1659, 03MAR06): 2 µg/mL
MIC ([2]; Staphylococcus aureus, MRSA isolate 1661, 03MAR06): 4 µg/mL
MIC ([2]; Staphylococcus aureus, MRSA isolate 1729, 03MAR06): 2 µg/mL
MIC ([2]; Staphylococcus aureus, MRSA isolate 1730, 24FEB06): 4 µg/mL
MIC ([2]; Staphylococcus aureus, MRSA isolate 2009, 24FEB06): 2 µg/mL
MIC ([2]; Staphylococcus aureus, MRSA isolate 2010, 24FEB06): 2 µg/mL
MIC ([2]; Staphylococcus aureus, MRSA isolate 2011, 24FEB06): 4 µg/mL
MIC50 [2, 6]: 2 µg/mL
MIC90 [2, 6]: 4 µg/mL
MIC Range ([3]; 2 VISA isolates, combinations at 2.5:1, given as NB/partner): 1 to 2 µg/mL
MIC ([3]; Staphylococcus aureus, VISA isolate 2012, 03MAR06): 1 µg/mL
MIC ([3]; Staphylococcus aureus, VISA isolate 2018, 03MAR06): 2 µg/mL
MIC50 ([3]; Staphylococcus aureus, 2 VISA isolates, combinations at 2.5:1, given as NB/partner): 1 µg/mL
MIC Range ([4]; 52 MSSA isolates, Mueller Hinton II Broth, combinations at 2.5:1, given as NB/partner): 1 to 4 µg/mL
MIC ([4]; Staphylococcus aureus, MSSA isolate 133, 03MAR06): 2 µg/mL
MIC ([4]; Staphylococcus aureus, MSSA isolate 134, 03MAR06): 2 µg/mL
MIC ([4]; Staphylococcus aureus, MSSA isolate 135, 03MAR06): 4 µg/mL
MIC ([4]; Staphylococcus aureus, MSSA isolate 753, 22FEB06): 2 µg/mL
MIC ([4]; Staphylococcus aureus, MSSA isolate 754, 22FEB06): 4 µg/mL
MIC ([4]; Staphylococcus aureus, MSSA isolate 754, 24FEB06): 4 µg/mL
MIC ([4]; Staphylococcus aureus, MSSA isolate 755, 22FEB06): 2 µg/mL
MIC ([4]; Staphylococcus aureus, MSSA isolate 756, 03MAR06): 2 µg/mL
MIC ([4]; Staphylococcus aureus, MSSA isolate 779, 22FEB06): 2 µg/mL
MIC ([4]; Staphylococcus aureus, MSSA isolate 780, 03MAR06): 4 µg/mL
MIC ([4]; Staphylococcus aureus, MSSA isolate 781, 03MAR06): 2 µg/mL
MIC ([4]; Staphylococcus aureus, MSSA isolate 782, 22FEB06): 2 µg/mL
MIC ([4]; Staphylococcus aureus, MSSA isolate 783, 22FEB06): 2 µg/mL
MIC ([4]; Staphylococcus aureus, MSSA isolate 784, 22FEB06): 2 µg/mL
MIC ([4]; Staphylococcus aureus, MSSA isolate 785, 22FEB06): 2 µg/mL
MIC ([4]; Staphylococcus aureus, MSSA isolate 786, 22FEB06): 4 µg/mL
MIC ([4]; Staphylococcus aureus, MSSA isolate 787, 22FEB06): 2 µg/mL
MIC ([4]; Staphylococcus aureus, MSSA isolate 788, 22FEB06): 2 µg/mL
MIC ([4]; Staphylococcus aureus, MSSA isolate 789, 24FEB06): 4 µg/mL
MIC ([4]; Staphylococcus aureus, MSSA isolate 790, 24FEB06): 4 µg/mL
MIC ([4]; Staphylococcus aureus, MSSA isolate 791, 24FEB06): 2 µg/mL
MIC ([4]; Staphylococcus aureus, MSSA isolate 792, 03MAR06): 2 µg/mL
MIC ([4]; Staphylococcus aureus, MSSA isolate 793, 24FEB06): 4 µg/mL
MIC ([4]; Staphylococcus aureus, MSSA isolate 794, 24FEB06): 4 µg/mL
MIC ([4]; Staphylococcus aureus, MSSA isolate 994, 22FEB06): 2 µg/mL
MIC ([4]; Staphylococcus aureus, MSSA isolate 995, 03MAR06): 2 µg/mL
MIC ([4]; Staphylococcus aureus, MSSA isolate 996, 22FEB06): 2 µg/mL
MIC ([4]; Staphylococcus aureus, MSSA isolate 997, 22FEB06): 2 µg/mL
MIC ([4]; Staphylococcus aureus, MSSA isolate 998, 03MAR06): 2 µg/mL
MIC ([4]; Staphylococcus aureus, MSSA isolate 999, 22FEB06): 2 µg/mL
MIC ([4]; Staphylococcus aureus, MSSA isolate 1000, 24FEB06): 2 µg/mL
MIC ([4]; Staphylococcus aureus, MSSA isolate 1001, 24FEB06): 2 µg/mL
MIC ([4]; Staphylococcus aureus, MSSA isolate 1002, 24FEB06): 2 µg/mL
MIC ([4]; Staphylococcus aureus, MSSA isolate 1003, 03MAR06): 2 µg/mL
MIC ([4]; Staphylococcus aureus, MSSA isolate 1005, 24FEB06): 2 µg/mL
MIC ([4]; Staphylococcus aureus, MSSA isolate 1006, 24FEB06): 2 µg/mL
MIC ([4]; Staphylococcus aureus, MSSA isolate 1007, 24FEB06): 4 µg/mL
MIC ([4]; Staphylococcus aureus, MSSA isolate 1008, 24FEB06): 2 µg/mL
MIC ([4]; Staphylococcus aureus, MSSA isolate 1009, 24FEB06): 4 µg/mL
MIC ([4]; Staphylococcus aureus, MSSA isolate 1131, 24FEB06): 2 µg/mL
MIC ([4]; Staphylococcus aureus, MSSA isolate 1132, 03MAR06): 2 µg/mL
MIC ([4]; Staphylococcus aureus, MSSA isolate 1133, 24FEB06): 2 µg/mL
MIC ([4]; Staphylococcus aureus, MSSA isolate 1134, 24FEB06): 2 µg/mL
MIC ([4]; Staphylococcus aureus, MSSA isolate 1654, 03MAR06): 2 µg/mL
MIC ([4]; Staphylococcus aureus, MSSA isolate 1656, 03MAR06): 2 µg/mL
MIC ([4]; Staphylococcus aureus, MSSA isolate 1662, 03MAR06): 2 µg/mL
MIC ([4]; Staphylococcus aureus, MSSA isolate 1663, 03MAR06): 4 µg/mL
MIC ([4]; Staphylococcus aureus, MSSA isolate 1666, 03MAR06): 4 µg/mL
MIC ([4]; Staphylococcus aureus, MSSA isolate 1667, 03MAR06): 4 µg/mL
MIC ([4]; Staphylococcus aureus, MSSA isolate 1668, 03MAR06): 4 µg/mL
MIC ([4]; Staphylococcus aureus, MSSA isolate 1671, 03MAR06): 2 µg/mL
MIC ([4]; Staphylococcus aureus, MSSA isolate 1728, 03MAR06): 1 µg/mL
MIC ([4]; Staphylococcus aureus, MSSA isolate 1728, retest 09MAR06): 1 µg/mL
MIC50 [4, 7]: 2 µg/mL
MIC90 [4, 7]: 4 µg/mL
MIC [5]: 2 µg/mL
SMILES: CC(=O)NC[C@H]1CN(c2ccc(N3CCOCC3)c(F)c2)C(=O)O1 [LZD, linezolid]
